Experimental data taken from patent US20040058957A1, “Benzothiophene derivatives and herbicidal compositions containing the same” (priority 2000, published 2004).

Tests used:
paddy rice = assay: Submersion test, treatment 3 days after transplantation: injury to paddy rice; format: in vivo; design: key: 0: No injury; 1: Substantially no injury; 2: Slight injury; 3: Some injury; 4: Remarkable injury; 5: Almost all crops dead; conditions: rated 30 days after application
Method: A mixture consisting of 57 parts by weight of talc and 40 parts by weight of bentonite as carrier and 3 parts by weight of sodium alkylbenzenesulfonate as surfactant was pulverized and mixed uniformly to obtain a carrier for wettable powder. […] Then, rice seedlings of 2.5 leaf stage were transplanted in the soil. Water was pored into the pot so as to submerge the soil at a depth of 3 cm. The pot was placed in a greenhouse maintained at 20 to 25° C. for vegetation. […] After 30 days from the application of the herbicidal composition, the herbicidal effect and injury to the paddy rice were determined. […] The injury to crops was evaluated according to the following ratings: [table]

Scirpus juncoides [1] = assay: Submersion test, treatment 3 days after transplantation: herbicidal effect; format: in vivo; conditions: rated 30 days after application
Method: (§1) A mixture consisting of 57 parts by weight of talc and 40 parts by weight of bentonite as carrier and 3 parts by weight of sodium alkylbenzenesulfonate as surfactant was pulverized and mixed uniformly to obtain a carrier for wettable powder. Each herbicidal composition was prepared by uniformly pulverizing and mixing 90 parts by weight of the carrier for wettable powder and 10 parts by weight of the benzothiophene derivative produced in each example.
(§2) Seeds of Scirpus juncoides were sowed onto paddy field soil in a Wagner pot of 1/2000 are. Then, rice seedlings of 2.5 leaf stage were transplanted in the soil. Water was pored into the pot so as to submerge the soil at a depth of 3 cm. The pot was placed in a greenhouse maintained at 20 to 25° C. for vegetation. After 3 days from transplantation of the rice seedlings, a predetermined amount of the herbicidal composition prepared in the step [1] was applied to the pot. After 30 days from the application of the herbicidal composition, the herbicidal effect and injury to the paddy rice were determined.
(§3) The herbicidal effect and the injury to crops in the above tests (1) and (2) were evaluated based on the following ratings.
(§4) The degree of weed control (%) was calculated from the weights of the above-ground parts of fresh weeds in the treated area and the untreated area using the following equation:
(§5) Degree of weed control (%)=[1−(weight of weeds in treated area)/(weight of weeds in untreated area)]×100
(§6) The herbicidal effect was determined according to the following ratings: […]

Scirpus juncoides [2] = assay: Submersion test, treatment 10 days after transplantation: herbicidal effect; format: in vivo; conditions: rated 30 days after application
Method: as §1
as §2, with “vegetation. After 10 days from” for “vegetation. After 3 days from”
as §3, §4, §5, §6

| melting point [°C] | SMILES | Injury paddy rice (paddy rice; application rate 100 g/ha) | Injury paddy rice (paddy rice; application rate 200 g/ha) | Herbicidal effect Scirpus juncoides (Scirpus juncoides [1]; application rate 100 g/ha) | Herbicidal effect Scirpus juncoides (Scirpus juncoides [1]; application rate 200 g/ha) | Herbicidal effect Scirpus juncoides (Scirpus juncoides [2]; application rate 100 g/ha) | Herbicidal effect Scirpus juncoides (Scirpus juncoides [2]; application rate 200 g/ha) |
| --- | --- | --- | --- | --- | --- | --- | --- |
| 192.7 to 193.2 | CSC1Cc2c(ccc(C(=O)C3C(=O)CCCC3=O)c2C)S1(=O)=O (stereo not shown) [Compound No. 10, 4-methyl-2-methylthio-5-(1,3-dioxocyclohex-2-yl)carbonyl-2,3-dihydrobenzothiophene 1,1-dioxide] | 0 | 0 | 5 (90% or higher (almost completely dead)) | 5 (90% or higher (almost completely dead)) | 5 (90% or higher (almost completely dead)) | 5 (90% or higher (almost completely dead)) |
| – | CCSC1Cc2c(ccc(C(=O)C3C(=O)CCCC3=O)c2Cl)S1(=O)=O (stereo not shown) [Compound No. 2, 4-chloro-2-ethylthio-5-(1,3-cdioxocyclohex-2-yl)carbonyl-2,3-cdihydrobenzothiophene 1,1-dioxide] | 0 | 0 | 5 (90% or higher (almost completely dead)) | 5 (90% or higher (almost completely dead)) | 5 (90% or higher (almost completely dead)) | 5 (90% or higher (almost completely dead)) |
| – | CSC1Cc2c(ccc(C(=O)C3C(=O)CCCC3=O)c2Br)S1(=O)=O (stereo not shown) [Compound No. 41, 4-bromo-2-methylthio-5-(1,3-dioxocyclohex-2-yl)carbonyl-2,3-dihydrobenzothiophene 1,1-dioxide] | 0 | 0 | 5 (90% or higher (almost completely dead)) | 5 (90% or higher (almost completely dead)) | 5 (90% or higher (almost completely dead)) | 5 (90% or higher (almost completely dead)) |
| – | CSC1Cc2c(Cl)c(C(=O)C3=C(SCCO)CCCC3=O)cc(C)c2S1(=O)=O (stereo not shown) [Compound No. 50, 4-chloro-7-methyl-2-methylthio-5-[3-(2-hydroxyethyl)thio-1-oxo-2-cyclohexen-2-yl]carbonyl-2,3-dihydrobenzothiophene 1,1-dioxide] | 0 | 0 | 5 (90% or higher (almost completely dead)) | 5 (90% or higher (almost completely dead)) | 5 (90% or higher (almost completely dead)) | 5 (90% or higher (almost completely dead)) |
| – | CSC1Cc2c(Cl)c(C(=O)C3=C(n4cccn4)CCCC3=O)cc(C)c2S1(=O)=O (stereo not shown) [Compound No. 52, 4-chloro-7-methyl-2-methylthio-5-[3-(pyrazol-1-yl) -1-oxo-2-cyclohexen-2-yl]carbonyl-2,3-dihydrobenzothiophene 1,1-dioxide] | 0 | 0 | 4 (70% or higher but less than 90%) | 5 (90% or higher (almost completely dead)) | 4 (70% or higher but less than 90%) | 5 (90% or higher (almost completely dead)) |
| – | Cc1cc(C(=O)C2C(=O)CCCC2=O)c(Cl)c2c1S(=O)(=O)C(S(C)(=O)=O)C2 (stereo not shown) [Compound No. 46, 4-chloro-7-methyl-2-methanesulfonyl-5-(1,3-dioxocyclohex-2-yl)carbonyl-2,3-dihydrobenzothiophene 1,1-dioxide] | 0 | 0 | 5 (90% or higher (almost completely dead)) | 5 (90% or higher (almost completely dead)) | 4 (70% or higher but less than 90%) | 5 (90% or higher (almost completely dead)) |
| – | COCCSC1Cc2c(Cl)c(C(=O)C3C(=O)CCCC3=O)cc(C)c2S1(=O)=O (stereo not shown) [Compound No. 45, 4-chloro-7-methyl-2-(2-methoxyethyl)thio-5-(1,3-dioxocyclohex-2-yl)carbonyl-2,3-dihydrobenzothiophene 1,1-dioxide] | 0 | 0 | 5 (90% or higher (almost completely dead)) | 5 (90% or higher (almost completely dead)) | 5 (90% or higher (almost completely dead)) | 5 (90% or higher (almost completely dead)) |
| – | CSC1Cc2c(ccc(C(=O)C3=C(n4cccn4)CCCC3=O)c2Cl)S1(=O)=O (stereo not shown) [Compound No. 39, 4-chloro-2-methylthio-5-[3-(pyrazol-1-yl)-1-oxo-2-cyclohexen-2-yl]carbonyl-2,3-dihydrobenzothiophene 1,1-dioxide] | 0 | 0 | 4 (70% or higher but less than 90%) | 5 (90% or higher (almost completely dead)) | 4 (70% or higher but less than 90%) | 5 (90% or higher (almost completely dead)) |
| – | CS(=O)(=O)C1Cc2c(ccc(C(=O)C3=C(Cl)CCCC3=O)c2Cl)S1(=O)=O (stereo not shown) [Compound No. 18, 4-chloro-2-methanesulfonyl-5-(3-chloro-1-oxo-2-cyclohexen-2-yl)carbonyl-2,3-dihydrobenzothiophene 1,1-dioxide] | 0 | 0 | 4 (70% or higher but less than 90%) | 5 (90% or higher (almost completely dead)) | 4 (70% or higher but less than 90%) | 5 (90% or higher (almost completely dead)) |
| – | CSC1Cc2c(ccc(C(=O)C3=C(Sc4nccn4C)CCCC3=O)c2Cl)S1(=O)=O (stereo not shown) [Compound No. 35, 4-chloro-2-methylthio-5-[3-(1-methylimidazol-2-yl)thio-1-oxo-2-cyclohexen-2-yl]carbonyl-2,3-dihydrobenzothiophene 1,1-dioxide] | 0 | 0 | 4 (70% or higher but less than 90%) | 5 (90% or higher (almost completely dead)) | 4 (70% or higher but less than 90%) | 5 (90% or higher (almost completely dead)) |
| – | CSC1Cc2c(ccc(C(=O)C3=C(SCCO)CCCC3=O)c2Cl)S1(=O)=O (stereo not shown) [Compound No. 31, 4-chloro-2-methylthio-5-[3-(2-hydroxyethyl)thio-1-oxo-2-cyclohexen-2-yl]carbonyl-2,3-dihydrobenzothiophene 1,1-dioxide] | 0 | 0 | 5 (90% or higher (almost completely dead)) | 5 (90% or higher (almost completely dead)) | 5 (90% or higher (almost completely dead)) | 5 (90% or higher (almost completely dead)) |
| – | CO/N=C/CSC1Cc2c(ccc(C(=O)C3C(=O)CCCC3=O)c2Cl)S1(=O)=O (single isomer, unassigned) [Compound No. 8, 4-chloro-2-(2-methoxyiminoethyl)thio-5-(1,3-dioxocyclohex-2-yl)carbonyl-2,3-dihydrobenzothiophene 1,1-dioxide] | 0 | 0 | 4 (70% or higher but less than 90%) | 5 (90% or higher (almost completely dead)) | 5 (90% or higher (almost completely dead)) | 5 (90% or higher (almost completely dead)) |
| – | COC(=O)CSC1Cc2c(ccc(C(=O)C3=C(Cl)CCCC3=O)c2Cl)S1(=O)=O (stereo not shown) [Compound No. 27, 4-chloro-2-(methoxycarbonylmethyl)thio-5-(3-chloro-1-oxo-2-cyclohexen-2-yl)carbonyl-2,3-dihydrobenzothiophene 1,1-dioxide] | 0 | 0 | 4 (70% or higher but less than 90%) | 5 (90% or higher (almost completely dead)) | 4 (70% or higher but less than 90%) | 5 (90% or higher (almost completely dead)) |
